In brackets after ≈: the same amount, converted by molar mass. Like-named read-outs stand apart in the source and are kept apart here.
Experiments:
Assay in all cases: MIC on clinically isolated bacteria
Assay type in all cases: cell-based
[1] = tested on: Acinetobacter baumannii C251
From the text: (§1) Twenty-five strains of clinically isolated Acinetobacter baumannii and twenty-seven strains of Pseudomonas aeruginosa were respectively selected and used to determine the minimum inhibitory concentration (MIC) of the compounds by micro-liquid dilution method according to the Institute of Clinical and Laboratory Standard (CLSI) requirements.

[2] = tested on: Acinetobacter baumannii C270
From the text: as §1

[3] = tested on: Acinetobacter baumannii C312
From the text: as §1

[4] = tested on: Acinetobacter baumannii C313
From the text: as §1

[5] = tested on: Acinetobacter baumannii C315
From the text: as §1

[6] = tested on: Acinetobacter baumannii C319
From the text: as §1

[7] = tested on: Acinetobacter baumannii C328
From the text: as §1

[8] = tested on: Acinetobacter baumannii C332
From the text: as §1

[9] = tested on: Acinetobacter baumannii C333
From the text: as §1

[10] = tested on: Acinetobacter baumannii C357
From the text: as §1

[11] = tested on: Acinetobacter baumannii C361
From the text: as §1

[12] = tested on: Acinetobacter baumannii C390
From the text: as §1

[13] = tested on: Acinetobacter baumannii C394
From the text: as §1

[14] = tested on: Acinetobacter baumannii C395
From the text: as §1

[15] = tested on: Acinetobacter baumannii C401
From the text: as §1

[16] = tested on: Acinetobacter baumannii C402
From the text: as §1

[17] = tested on: Acinetobacter baumannii C403
From the text: as §1

[18] = tested on: Acinetobacter baumannii C408
From the text: as §1

[19] = tested on: Acinetobacter baumannii C427
From the text: as §1

Aeruginosa ATCC27853 = conditions: Pseudomonas aeruginosa
From the text: as §1

[20] = tested on: Pseudomonas aeruginosa C745
From the text: as §1

[21] = tested on: Pseudomonas aeruginosa C754
From the text: as §1

[22] = tested on: Pseudomonas aeruginosa C755
From the text: as §1

[23] = tested on: Pseudomonas aeruginosa C761
From the text: as §1

[24] = tested on: Pseudomonas aeruginosa C763
From the text: as §1

[25] = tested on: Pseudomonas aeruginosa M4
From the text: as §1

[26] = tested on: Pseudomonas aeruginosa W13
From the text: as §1

[27] = tested on: Pseudomonas aeruginosa W19
From the text: as §1

[28] = tested on: Pseudomonas aeruginosa W1
From the text: as §1

[29] = tested on: Pseudomonas aeruginosa W20
From the text: as §1

[30] = tested on: Pseudomonas aeruginosa W21
From the text: as §1

[31] = tested on: Pseudomonas aeruginosa W24
From the text: as §1

[32] = tested on: Pseudomonas aeruginosa W27
From the text: as §1

[33] = tested on: Pseudomonas aeruginosa W28
From the text: as §1

[34] = tested on: Pseudomonas aeruginosa W29
From the text: as §1

[35] = tested on: Pseudomonas aeruginosa W32
From the text: as §1

[36] = tested on: Pseudomonas aeruginosa W42
From the text: as §1

[37] = tested on: Pseudomonas aeruginosa W46
From the text: as §1

[38] = tested on: Pseudomonas aeruginosa W47
From the text: as §1

[39] = tested on: Pseudomonas aeruginosa W4
From the text: as §1

[40] = tested on: Pseudomonas aeruginosa W9
From the text: as §1

Compound CN(C)c1cc(NC(=O)CNC(C)(C)C)c(O)c2c1C[C@H]1C[C@H]3[C@H](N(C)C)C(O)=C(C(N)=O)C(=O)[C@@]3(O)C(O)=C1C2=O [Tigecycline, reference compound] has an MIC ([1]; Acinetobacter baumannii, C251, read-out: Minimum Inhibitory Concentration (MIC)) of 8 µg/mL (≈ 13.7 µM), an MIC ([2]; Acinetobacter baumannii, C270, read-out: Minimum Inhibitory Concentration (MIC)) of 1 µg/mL (≈ 1.71 µM) and an MIC ([3]; Acinetobacter baumannii, C312, read-out: Minimum Inhibitory Concentration (MIC)) of 1 µg/mL (≈ 1.71 µM). The MIC ([4]; Acinetobacter baumannii, C313, read-out: Minimum Inhibitory Concentration (MIC)) was 1 µg/mL (≈ 1.71 µM), the MIC ([5]; Acinetobacter baumannii, C315, read-out: Minimum Inhibitory Concentration (MIC)) was 1 µg/mL (≈ 1.71 µM) and the MIC ([6]; Acinetobacter baumannii, C319, read-out: Minimum Inhibitory Concentration (MIC)) was 1 µg/mL (≈ 1.71 µM). For the same compound, the MIC ([7]; Acinetobacter baumannii, C328, read-out: Minimum Inhibitory Concentration (MIC)) was 1 µg/mL (≈ 1.71 µM), the MIC ([8]; Acinetobacter baumannii, C332, read-out: Minimum Inhibitory Concentration (MIC)) was 1 µg/mL (≈ 1.71 µM) and the MIC ([9]; Acinetobacter baumannii, C333, read-out: Minimum Inhibitory Concentration (MIC)) was 1 µg/mL (≈ 1.71 µM). It also gave an MIC ([10]; Acinetobacter baumannii, C357, read-out: Minimum Inhibitory Concentration (MIC)) of 1 µg/mL (≈ 1.71 µM), an MIC ([11]; Acinetobacter baumannii, C361, read-out: Minimum Inhibitory Concentration (MIC)) of 1 µg/mL (≈ 1.71 µM) and an MIC ([12]; Acinetobacter baumannii, C390, read-out: Minimum Inhibitory Concentration (MIC)) of 1 µg/mL (≈ 1.71 µM). For the same compound, the MIC ([13]; Acinetobacter baumannii, C394, read-out: Minimum Inhibitory Concentration (MIC)) was 1 µg/mL (≈ 1.71 µM), the MIC ([14]; Acinetobacter baumannii, C395, read-out: Minimum Inhibitory Concentration (MIC)) was 1 µg/mL (≈ 1.71 µM) and the MIC ([15]; Acinetobacter baumannii, C401, read-out: Minimum Inhibitory Concentration (MIC)) was 1 µg/mL (≈ 1.71 µM). The MIC ([16]; Acinetobacter baumannii, C402, read-out: Minimum Inhibitory Concentration (MIC)) was 1 µg/mL (≈ 1.71 µM), the MIC ([17]; Acinetobacter baumannii, C403, read-out: Minimum Inhibitory Concentration (MIC)) was 1 µg/mL (≈ 1.71 µM) and the MIC ([18]; Acinetobacter baumannii, C408, read-out: Minimum Inhibitory Concentration (MIC)) was 1 µg/mL (≈ 1.71 µM). For the same compound, the MIC ([19]; Acinetobacter baumannii, C427, read-out: Minimum Inhibitory Concentration (MIC)) was 1 µg/mL (≈ 1.71 µM), the MIC (Aeruginosa ATCC27853; ATCC27853) was 8 µg/mL (≈ 13.7 µM) and the MIC [20] was > 16 µg/mL. The MIC [21] was 8 µg/mL (≈ 13.7 µM), the MIC [22] was 4 µg/mL (≈ 6.83 µM) and the MIC [23] was 16 µg/mL (≈ 27.3 µM). For the same compound, the MIC [24] was > 16 µg/mL, the MIC [25] was 4 µg/mL (≈ 6.83 µM) and the MIC [26] was 8 µg/mL (≈ 13.7 µM). It also gave an MIC [27] of 8 µg/mL (≈ 13.7 µM), an MIC [28] of 16 µg/mL (≈ 27.3 µM) and an MIC [29] of 16 µg/mL (≈ 27.3 µM). For the same compound, the MIC [30] was 8 µg/mL (≈ 13.7 µM), the MIC [31] was 16 µg/mL (≈ 27.3 µM) and the MIC [32] was 16 µg/mL (≈ 27.3 µM). The MIC [33] was > 16 µg/mL, the MIC [34] was 16 µg/mL (≈ 27.3 µM) and the MIC [35] was 16 µg/mL (≈ 27.3 µM). For the same compound, the MIC [36] was 8 µg/mL (≈ 13.7 µM), the MIC [37] was 8 µg/mL (≈ 13.7 µM) and the MIC [38] was 16 µg/mL (≈ 27.3 µM). The MIC [39] was 8 µg/mL (≈ 13.7 µM) and the MIC [40] was 16 µg/mL (≈ 27.3 µM).

Work on CC1(C)[C@H](NC(=O)/C(=N\O[C@@H](COc2ccc3c(c2)CN(C(=N)NOCCN)C3)C(=O)O)c2csc(N)n2)C(=O)N1OS(=O)(=O)O [Compound 43] yielded an MIC ([1]; Acinetobacter baumannii C251, read-out: Minimum Inhibitory Concentration (MIC)) of 8 µg/mL (≈ 11.7 µM), an MIC ([2]; Acinetobacter baumannii C270, read-out: Minimum Inhibitory Concentration (MIC)) of 8 µg/mL (≈ 11.7 µM) and an MIC ([3]; Acinetobacter baumannii C312, read-out: Minimum Inhibitory Concentration (MIC)) of 8 µg/mL (≈ 11.7 µM). It also gave an MIC ([4]; Acinetobacter baumannii C313, read-out: Minimum Inhibitory Concentration (MIC)) of 8 µg/mL (≈ 11.7 µM), an MIC ([5]; Acinetobacter baumannii C315, read-out: Minimum Inhibitory Concentration (MIC)) of 8 µg/mL (≈ 11.7 µM) and an MIC ([6]; Acinetobacter baumannii C319, read-out: Minimum Inhibitory Concentration (MIC)) of 8 µg/mL (≈ 11.7 µM). It also gave an MIC ([7]; Acinetobacter baumannii C328, read-out: Minimum Inhibitory Concentration (MIC)) of 8 µg/mL (≈ 11.7 µM), an MIC ([8]; Acinetobacter baumannii C332, read-out: Minimum Inhibitory Concentration (MIC)) of 8 µg/mL (≈ 11.7 µM) and an MIC ([9]; Acinetobacter baumannii C333, read-out: Minimum Inhibitory Concentration (MIC)) of 8 µg/mL (≈ 11.7 µM). The MIC ([10]; Acinetobacter baumannii C357, read-out: Minimum Inhibitory Concentration (MIC)) was 8 µg/mL (≈ 11.7 µM), the MIC ([11]; Acinetobacter baumannii C361, read-out: Minimum Inhibitory Concentration (MIC)) was 8 µg/mL (≈ 11.7 µM) and the MIC ([12]; Acinetobacter baumannii C390, read-out: Minimum Inhibitory Concentration (MIC)) was 8 µg/mL (≈ 11.7 µM). It also gave an MIC ([13]; Acinetobacter baumannii C394, read-out: Minimum Inhibitory Concentration (MIC)) of 8 µg/mL (≈ 11.7 µM), an MIC ([14]; Acinetobacter baumannii C395, read-out: Minimum Inhibitory Concentration (MIC)) of 8 µg/mL (≈ 11.7 µM) and an MIC ([15]; Acinetobacter baumannii C401, read-out: Minimum Inhibitory Concentration (MIC)) of 8 µg/mL (≈ 11.7 µM). For the same compound, the MIC ([16]; Acinetobacter baumannii C402, read-out: Minimum Inhibitory Concentration (MIC)) was 8 µg/mL (≈ 11.7 µM), the MIC ([17]; Acinetobacter baumannii C403, read-out: Minimum Inhibitory Concentration (MIC)) was 16 µg/mL (≈ 23.3 µM) and the MIC ([18]; Acinetobacter baumannii C408, read-out: Minimum Inhibitory Concentration (MIC)) was 8 µg/mL (≈ 11.7 µM). The MIC ([19]; Acinetobacter baumannii C427, read-out: Minimum Inhibitory Concentration (MIC)) was 16 µg/mL (≈ 23.3 µM), the MIC (Aeruginosa ATCC27853; Aeruginosa ATCC27853, read-out: MIC) was 1 µg/mL (≈ 1.46 µM) and the MIC ([20]; read-out: MIC) was 8 µg/mL (≈ 11.7 µM). The MIC ([21]; read-out: MIC) was 1 µg/mL (≈ 1.46 µM), the MIC ([22]; read-out: MIC) was 1 µg/mL (≈ 1.46 µM) and the MIC ([23]; read-out: MIC) was 2 µg/mL (≈ 2.92 µM). The MIC ([24]; read-out: MIC) was 8 µg/mL (≈ 11.7 µM), the MIC ([25]; read-out: MIC) was 0.25 µg/mL (≈ 0.365 µM) and the MIC ([26]; read-out: MIC) was 1 µg/mL (≈ 1.46 µM). It also gave an MIC ([27]; read-out: MIC) of 4 µg/mL (≈ 5.83 µM), an MIC ([28]; read-out: MIC) of 8 µg/mL (≈ 11.7 µM) and an MIC ([29]; read-out: MIC) of 8 µg/mL (≈ 11.7 µM). For the same compound, the MIC ([30]; read-out: MIC) was 1 µg/mL (≈ 1.46 µM), the MIC ([31]; read-out: MIC) was 8 µg/mL (≈ 11.7 µM) and the MIC ([32]; read-out: MIC) was 8 µg/mL (≈ 11.7 µM). For the same compound, the MIC ([33]; read-out: MIC) was 8 µg/mL (≈ 11.7 µM), the MIC ([34]; read-out: MIC) was 8 µg/mL (≈ 11.7 µM) and the MIC ([35]; read-out: MIC) was 8 µg/mL (≈ 11.7 µM). The MIC ([36]; read-out: MIC) was 1 µg/mL (≈ 1.46 µM), the MIC ([37]; read-out: MIC) was 4 µg/mL (≈ 5.83 µM) and the MIC ([38]; read-out: MIC) was 8 µg/mL (≈ 11.7 µM). It also gave an MIC ([39]; read-out: MIC) of 0.5 µg/mL (≈ 0.729 µM) and an MIC ([40]; read-out: MIC) of 8 µg/mL (≈ 11.7 µM).
